In paper doi:10.1101/2019.12.11.872838v1 (biorxiv, 2019):

Biological target: KDM1A (Homo sapiens, UniProt O60341)
Test: ALPHA screen demethylation assay
Format: biochemical

IC50: > 10 µM
SMILES: CO[C@H]1/C=C\C=C(/C)C(=O)NC2=CC(=O)C(NCCN(C)C)=C(C[C@@H](C)C[C@H](OC)[C@H](O)[C@@H](C)/C=C(\C)[C@@H]1OC(N)=O)C2=O [17-DMAG]
